In paper PMC9820345, “Metal Complexes of a 5-Nitro-8-Hydroxyquinoline-Proline Hybrid with Enhanced Water Solubility Targeting Multidrug Resistant Cancer Cells” (International Journal of Molecular Sciences, 2022):

Key:
[1] = Complex formation kinetics (UV-vis, tandem cuvette); assay type: physicochemical; conditions: 50 μM triaqua complex + 50 μM ligand
Experimental: The complex formation kinetics for the RhCp* and RuCym complexes was also assayed and compared at pH 1 and 4 (Figure S20). UV-vis spectral changes were followed in time after the triaqua complex [M(arene)(H2O)3]^2+ (50 μM) and the ligand (50 μM) were mixed in a tandem cuvette. The equilibrium was reached much faster in the case of the RhCp* complex (~5 min at pH 1, ~1 min at pH 4), as compared to the RuCym complex (~7 h at pH 1, ~45 min at pH 4).

[2] = Stability of the complexes in RPMI medium (UV-vis, 1H NMR); assay type: physicochemical; conditions: compared with serum
Text: The stability of the RhCp* and RuCym complexes of HQNO2-L-Pro was also monitored in Roswell Park Memorial Institute (RPMI) medium used for the in vitro cell studies (in the case of Colo cells), and in blood serum using UV-vis and ^1H NMR spectroscopy. […] Despite these changes, the dissociation of the complexes is not likely as the liberation of the unbound ligand was not observed; thus, the complexes most probably form ternary complexes with the components of the serum or the medium. In order to further study the reactivity of these complexes with bioligands, their interaction with human serum albumin (HSA) and selected oligopeptides (also used as binding models of HSA) was assayed.

Ac-Ala-His-Ala-NH2 (AHA) = experiment: Mixed-ligand adduct formation with His-containing oligopeptide AHA; assay type: binding
Experimental: (§1) According to numerous papers on the binding of half-sandwich organometallic complexes to HSA [35, 36], surface exposed histidine (His) side chains are the most feasible coordinating moieties. […] The equilibrium could be reached within 3–10 min in the case of the RhCp* complex on the basis of the UV-vis spectral changes (Figure S28), and similar conditional constants (logK’) were computed with these model compounds for the formation of mixed-ligand RhCp* complexes; namely logK’ 5.00 ± 0.1, 4.4 ± 0.1, 5.1 ± 0.1 were obtained in the case of FHA, AHA, and mim, respectively. […] In the case of the oligopeptides, formation of isomers was detected which might be explained by the existence of two chiral centers, namely the metal ion and His-CHα. The adduct formation of the RuCym complex with mim was quantitative, hindering the determination of the logK’ value (meaning logK’ > 5.5). […]
(§2) An Agilent Cary 8454 diode array spectrophotometer (Santa Clara, CA, USA) was used to obtain UV-vis spectra in the wavelength range 200–1000 nm, while spectra were recorded for the Fe(II)-containing samples using an Avantes (Avantes B.V., Apeldoorn, The Nederlands) AvaSpec-ULS2048CL-EVO spectrometer with an AvaLight-DHc light source and FDP-7UVIR200-2-VAR transmission dip probe. […]

[3] = Mixed-ligand adduct formation with N-methylimidazole; assay type: binding; conditions: mim, pH 7.4
Experimental: as §1, §2

HSA site I (Trp-214) = molecular target: T1, HSA site I (Trp-214) (Homo sapiens, UniProt P02768); experiment: HSA Trp-214 quenching by fluorometry (site I); assay type: binding; conditions: 1 µM HSA, pH 7.4 (PBS'), 24 h incubation
T1 construct: purchased Sigma-Aldrich (Darmstadt, Germany) A8763
T1 sequence (P02768 25-609): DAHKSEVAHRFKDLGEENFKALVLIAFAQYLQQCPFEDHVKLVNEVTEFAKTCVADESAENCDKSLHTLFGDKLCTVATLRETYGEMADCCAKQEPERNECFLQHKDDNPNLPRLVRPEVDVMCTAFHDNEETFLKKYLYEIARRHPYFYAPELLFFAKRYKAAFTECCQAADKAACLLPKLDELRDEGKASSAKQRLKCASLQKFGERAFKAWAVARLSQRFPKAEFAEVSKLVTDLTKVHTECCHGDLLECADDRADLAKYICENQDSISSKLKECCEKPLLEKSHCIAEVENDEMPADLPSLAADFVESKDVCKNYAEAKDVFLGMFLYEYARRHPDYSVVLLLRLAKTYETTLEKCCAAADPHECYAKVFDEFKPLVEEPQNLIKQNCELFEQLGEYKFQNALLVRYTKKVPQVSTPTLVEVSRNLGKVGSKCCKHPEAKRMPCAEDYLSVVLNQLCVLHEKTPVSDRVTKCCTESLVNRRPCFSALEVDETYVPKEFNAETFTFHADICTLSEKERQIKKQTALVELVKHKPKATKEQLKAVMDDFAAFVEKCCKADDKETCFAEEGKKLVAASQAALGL
Experimental: Therefore, tryptophan (Trp-214) quenching and dansylglycine (DG) site marker displacement experiments were conducted by fluorometry to obtain information about the binding at sites I and II, respectively, using the same approach reported in our former paper. A representative spectral series is shown in Figure 9a for the Trp-214 quenching experiment, upon the addition of the RhCp*–HQNO2-L-Pro complex and the computed binding constants (logKQ’ and logKDG’) which can be found in Figure 9b, in addition to the corresponding data for the HQCl-L-Pro complexes.
A Fluoromax (Horiba Jobin Yvon, Longjumeau, France) spectrofluorometer was utilized for fluorescence measurements using a 1 cm × 1 cm quartz cuvette. Samples contained 1 µM HSA or DG and 1 µM HSA at pH 7.4 (PBS’), and the complex concentration was varied between 0 and 53 µM. The measurements were carried out on individual samples. Excitation wavelengths were 295 nm for Trp-214 quenching, and 335 nm for the DG displacement studies, respectively. The calculated conditional stability constants for HSA–complex species were obtained using the computer program HypSpec. Calculations always were based on data obtained from at least two independent measurements. Self-absorbance and inner filter effect had to be taken into account, and corrections were made as was described in our former works.

Row | Compound | time to reach equilibrium of complex formation ([1]; pH 1) | time to reach equilibrium of complex formation ([1]; pH 4) | spectral changes on incubation in RPMI medium [2] | conditional constant logK' of adduct (Ac-Ala-His-Ala-NH2 (AHA); pH 7.4, 1H NMR peak integrals, 24 h incubation) | conditional constant logK' of adduct ([3]; 1H NMR, 24 h incubation, adduct formation quantitative) | conditional constant logK' of mixed-ligand complex (Ac-Ala-His-Ala-NH2 (AHA); pH 7.4, UV-vis) | conditional constant logK' of mixed-ligand complex ([3]; UV-vis) | quenching constant logKQ' (HSA site I (Trp-214)) | Kd (HSA site I (Trp-214); read-out: quenching constant logKQ' (converted))
1 | Cc1ccc(C(C)C)cc1.O=C(O)[C@@H]1CCC[NH+]1Cc1cc([N+](=O)[O-])c2ccc[n+]3c2c1[O][Ru-]3[Cl].[Cl-] [RuCym-HQNO2-L-Pro, [RuCym(HQNO2-L-Pro)Cl]Cl] | ~ 7 h | ~ 45 min | more significant | 5.1 ± 0.2 | > 5.5 | – | – | – | –
2 | CC1=C(C)[C](C)([Rh]([Cl])[O]c2c(C[NH+]3CCC[C@H]3C(=O)O)cc([N+](=O)[O-])c3cccnc23)C(C)=C1C.[Cl-] [RhCp*-HQNO2-L-Pro, [RhCp*(HQNO2-L-Pro)Cl]Cl] | ~ 5 min | ~ 1 min | more significant | – | – | 4.4 ± 0.1 | 5.1 ± 0.1 | 5.1 | –
3 | O=C(O)[C@@H]1CCCN1Cc1cc([N+](=O)[O-])c2cccnc2c1O [HQNO2-L-Pro, (2S)-1-((8-hydroxy-5-nitroquinolin-7-yl)methyl)pyrrolidin-1-ium-2-carboxylate] | – | – | – | – | – | – | – | – | 16.6 µM
